Results reported in US5587392A, “Azolyl methyl phenyl derivatives having aromatase inhibitory activity” (Mochida Pharmaceutical Co., Ltd., priority 1994, dated 1996).
pIC50: −log10 of the molar value. Where two headings read alike, the source gives them in different places.

Experiments:
[1] = related art; cited from earlier work
aromatase from rat ovary = biological target: T1, aromatase from rat ovary (Rattus norvegicus, UniProt P22443); assay: Inhibitory activity on aromatase from rat ovary; type: biochemical
T1 construct: Using as an enzyme sample the ovarian microsome fraction from a female rat; from tissue; host or cells: rat ovary, microsome fraction (female rat)
T1 sequence (P22443 1-508): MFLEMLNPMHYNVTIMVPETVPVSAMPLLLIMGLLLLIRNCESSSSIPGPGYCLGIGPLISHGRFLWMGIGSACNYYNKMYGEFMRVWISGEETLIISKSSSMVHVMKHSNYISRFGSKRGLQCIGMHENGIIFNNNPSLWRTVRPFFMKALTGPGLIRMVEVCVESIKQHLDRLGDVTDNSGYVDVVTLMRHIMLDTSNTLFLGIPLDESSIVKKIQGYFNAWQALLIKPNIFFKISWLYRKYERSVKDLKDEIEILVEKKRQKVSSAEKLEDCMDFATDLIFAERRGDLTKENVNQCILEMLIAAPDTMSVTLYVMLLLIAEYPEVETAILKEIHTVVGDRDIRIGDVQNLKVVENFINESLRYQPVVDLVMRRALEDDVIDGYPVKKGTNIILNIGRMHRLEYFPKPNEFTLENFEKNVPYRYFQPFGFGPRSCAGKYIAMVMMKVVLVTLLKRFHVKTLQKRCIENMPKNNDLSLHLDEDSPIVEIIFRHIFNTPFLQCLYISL

plasma estradiol = assay: Decreasing activity on blood estrogen (plasma estradiol, PMSG-treated rats); type: in vivo, female SD rats; conditions: Rattus norvegicus, po, 4 hours after dosing, read-out: Ratio in plasma estradiol decrease; for inhibition in vivo at 0.1 mg/kg: 0.1 mg/kg orally; for inhibition in vivo at 0.01 mg/kg: 0.01 mg/kg orally
Protocol: More specifically, pregnant mare serum gonadotropin (PMSG) was subcutaneously administered to female SD rats aged 3 weeks, at a dose of 200 IU/rat. […] Four hours after the dosing of the test compound, blood was sampled, and plasma estradiol was messuered by radioimmunoassay(RIA). The decreasing ratio (%) in plasma estradiol levels was calculated by comparing with control groups.

[2] = test system: steroid hormone level in blood; assay: Effects on the synthesis of various steroid hormones, compared with the dose lowering blood estrogen; type: in vivo, rats; conditions: 10 mg/kg
corticosterone = assay: Effect on plasma levels of corticosterone; type: in vivo, male SD rats; conditions: even at the highest doses (10 mg/kg; CGS 16949A 1 mg/kg)
testosterone = assay: Effect on plasma levels of testosterone; type: in vivo, male SD rats; conditions: even at the highest doses (10 mg/kg; CGS 16949A 1 mg/kg)
progesterone = assay: Effect on plasma levels of progesterone; type: in vivo, male SD rats; conditions: even at the highest doses (10 mg/kg; CGS 16949A 1 mg/kg)
aromatase = conditions: related art; cited from earlier work
[3] = test system: estrogen-dependent diseases; conditions: related art; cited from earlier work
[4] = rat ovarian microsomes, 30 nM [1β-3H] androstenedione, pH 7.4, 37° C., 15 minutes, read-out: IC50 value

In the case of `C[C@]12CCC(=O)C(O)=C1CC[C@@H]1[C@@H]2CC[C@]2(C)C(=O)CC[C@@H]12` [4-hydroxyandrostenedione], the “absorption when administered orally” value [1] is given as “poorly absorbed when administered orally”.

For `Clc1ccc(Oc2cccc3ccccc23)c(Cn2ccnc2)c1` [Example 5, 1-[5-chloro-2-(1-naphthyloxy)benzyl]-1H-imidazole], the pIC50 (aromatase from rat ovary; [4]) was 8.22.

`Clc1ccc(Oc2ccc3ccccc3c2)c(Cn2ccnc2)c1` [Example 6, 1-[5-Chloro-2-(2-naphthyloxy)benzyl]-1H-imidazole] showed a pIC50 (aromatase from rat ovary; [4]) of 8.00.

`Cn1nnc2ccc(Oc3ccc(Cl)cc3Cn3ccnc3)cc21` [Example 38, 6-[4-chloro-2-(1H-imidazol-1-ylmethyl)phenoxy]-1-methyl-1H-benzotriazole] showed an inhibition in vivo at 0.1 mg/kg (plasma estradiol) of 44% and a pIC50 (aromatase from rat ovary; [4]) of 9.40.

Work on `Clc1ccc(Oc2ccc3[nH]nnc3c2)c(Cn2cncn2)c1` [Example 40, 5-[4-chloro-2-(1H-1,2,4-triazol-1-ylmethyl)phenoxy]-1H-benzotriazole] yielded a pIC50 (aromatase from rat ovary; [4]) of 9.22.

For `Cn1nnc2ccc(Oc3ccc(Cl)cc3Cn3cncn3)cc21` [Example 41, 6-[4-chloro-2-(1H-1,2,4-triazol-1-ylmethyl)phenoxy]-1-methyl-1H-benzotriazole], the “effect on any steroid hormone level in blood” value [2] was “Neither the compound of Example 41 nor the compound of Example 52 in accordance with the present invention had any effect”, the inhibition in vivo at 0.01 mg/kg (plasma estradiol) was 46% and the inhibition in vivo at 0.1 mg/kg (plasma estradiol) was 70%. The “effect on plasma levels of corticosterone” value (corticosterone) was “neither the compound of Example 41 nor the compound of Example 52 in accordance with the present invention had any effect”, the “effect on plasma levels of testosterone” value (testosterone) was “neither the compound of Example 41 nor the compound of Example 52 in accordance with the present invention had any effect” and the pIC50 (aromatase from rat ovary; [4]) was 9.30. The “effect on plasma levels of progesterone” value (progesterone) was “neither the compound of Example 41 nor the compound of Example 52 in accordance with the present invention had any effect”.

Work on `Cn1nnc2ccc(Oc3ccc(Br)cc3Cn3cncn3)cc21` [Example 43, 6-[4-bromo-2-(1H-1,2,4-triazol-1-ylmethyl)phenoxy]-1-methyl-1H-benzotriazole] yielded an inhibition in vivo at 0.01 mg/kg (plasma estradiol) of 41%, an inhibition in vivo at 0.1 mg/kg (plasma estradiol) of 69% and a pIC50 (aromatase from rat ovary; [4]) of 9.52.

With `Cn1nnc2ccc(Oc3ccccc3Cn3cncn3)cc21` [Example 44, 1-methyl-6-[2-(1H-1,2,4-triazol-1-ylmethyl)phenoxy]-1H-benzotriazole] the inhibition in vivo at 0.1 mg/kg (plasma estradiol) was 23% and the pIC50 (aromatase from rat ovary; [4]) was 8.11.

With `Cn1nnc2ccc(Oc3ccc(F)cc3Cn3cncn3)cc21` [Example 45, 6-[4-Fluoro-2-(1H-1,2,4-triazol-1-ylmethyl)phenoxy]-1-methyl-1H-benzotriazole] the pIC50 (aromatase from rat ovary; [4]) was 8.48.

With `Cn1nnc2ccc(Oc3ccc(I)cc3Cn3cncn3)cc21` [Example 46, 6-[4-Iodo-2-(1H-1,2,4-triazol-1-ylmethyl)phenoxy]-1-methyl-1H-benzotriazole] the inhibition in vivo at 0.01 mg/kg (plasma estradiol) was 36% and the pIC50 (aromatase from rat ovary; [4]) was 9.40.

`COc1ccc(Oc2ccc3nnn(C)c3c2)c(Cn2cncn2)c1` [Example 47, 6-[4-Methoxy-2-(1H-1,2,4-triazol-1-ylmethyl)phenoxy]-1-methyl-1H-benzotriazole] gave a pIC50 (aromatase from rat ovary; [4]) of 8.80.

`Cn1nnc2ccc(Oc3ccc(OC(F)(F)F)cc3Cn3cncn3)cc21` [Example 48, 1-Methyl-6-[4-(trifluoromethoxy)-2-(1H-1,2,4-triazol-1-ylmethyl)phenoxy]-1H-benzotriazole] gave an inhibition in vivo at 0.01 mg/kg (plasma estradiol) of 30% and a pIC50 (aromatase from rat ovary) of 9.05.

`Cn1nnc2ccc(Oc3cc(Cl)ccc3Cn3cncn3)cc21` [Example 49, 6-[5-Chloro-2-(1H-1,2,4-triazol-1-ylmethyl)phenoxy]-1-methyl-1H-benzotriazole] showed a pIC50 (aromatase from rat ovary; [4]) of 8.82.

In the case of `Cn1nnc2ccc(Oc3ccc([N+](=O)[O-])cc3Cn3cncn3)cc21` [Example 50, 1-methyl-6-[4-nitro-2-(1H-1,2,4-triazol-1-ylmethyl)phenoxy]-1H-benzotriazole], the inhibition in vivo at 0.01 mg/kg (plasma estradiol) was 59% and the pIC50 (aromatase from rat ovary; [4]) was 9.30.

`CC(=O)c1ccc(Oc2ccc3nnn(C)c3c2)c(Cn2cncn2)c1` [Example 51, 4-[6-(1-methyl-1H-benzotriazoyloxy)]-3-(1H-1,2,4-triazol-1-ylmethyl)acetophenone] showed a pIC50 (aromatase from rat ovary; [4]) of 8.92.

For `Cn1nnc2ccc(Oc3ccc(C#N)cc3Cn3cncn3)cc21` [Example 52, 4-[6-(1-methyl-1H-benzotriazoyloxy)]-3-(1H-1,2,4-triazol-1-ylmethyl)benzonitrile], the “effect on any steroid hormone level in blood” value [2] was “Neither the compound of Example 41 nor the compound of Example 52 in accordance with the present invention had any effect”, the inhibition in vivo at 0.001 mg/kg (plasma estradiol; 0.001 mg/kg orally) was 22% and the inhibition in vivo at 0.01 mg/kg (plasma estradiol) was 77%. For the same molecule, the inhibition in vivo at 0.1 mg/kg (plasma estradiol) was 91%, the “effect on plasma levels of corticosterone” value (corticosterone) was “neither the compound of Example 41 nor the compound of Example 52 in accordance with the present invention had any effect” and the “effect on plasma levels of testosterone” value (testosterone) was “neither the compound of Example 41 nor the compound of Example 52 in accordance with the present invention had any effect”. For the same molecule, the pIC50 (aromatase from rat ovary; [4]) was 9.40 and the “effect on plasma levels of progesterone” value (progesterone) was “neither the compound of Example 41 nor the compound of Example 52 in accordance with the present invention had any effect”.

`Cn1nnc2ccc(Oc3ccc(C=O)cc3Cn3cncn3)cc21` [Example 53, 4-[6-(1-methyl-1H-benzotriazoyloxy)]-3-(1H-1,2,4-triazol-1-ylmethyl)benzaldehyde] showed a pIC50 (aromatase from rat ovary; [4]) of 9.10.

For `CCOC(=O)c1ccc(Oc2ccc3nnn(C)c3c2)c(Cn2cncn2)c1` [Example 55, 4-[6-(1-methyl-1H-benzotriazoyloxy) ]-3-(1H-1,2,4-triazol-1-ylmethyl)benzoic acid ethyl ester], the pIC50 (aromatase from rat ovary; [4]) was 8.85.

Molecule `C=Cc1ccc(Oc2ccc3nnn(C)c3c2)c(Cn2cncn2)c1` [Example 56] has a pIC50 (aromatase from rat ovary; [4]) of 9.52.

Molecule `C#Cc1ccc(Oc2ccc3nnn(C)c3c2)c(Cn2cncn2)c1` [Example 58, 6-[4-ethynyl-2-(1H-1,2,4-triazol-1-ylmethyl)phenoxy]-1-methyl-1H-benzotriazole] has a pIC50 (aromatase from rat ovary; [4]) of 9.52.

In the case of `Cn1nnc2ccc(Oc3ccc(C(F)(F)F)cc3Cn3cncn3)cc21` [Example 64, 6-[2-(1H-1,2,4-triazol-1-ylmethyl)-4-(trifluoromethyl)phenoxy]-1-methyl-1H-benzotriazole], the pIC50 (aromatase from rat ovary; [4]) was 9.22.

In the case of `CCn1nnc2ccc(Oc3ccc(Cl)cc3Cn3cncn3)cc21` [Example 67, 6-[4-chloro-2-(1H-1,2,4-triazol-1-ylmethyl)phenoxy]-1-ethyl-1H-benzotriazole], the pIC50 (aromatase from rat ovary; [4]) was 9.22.

`Cn1cnc2ccc(Oc3ccc(Cl)cc3Cn3cncn3)cc21` [Example 68, 6-[4-chloro-2-(1H-1,2,4-triazol-1-ylmethyl)phenoxy]-1-methylbenzimidazole] showed a pIC50 (aromatase from rat ovary; [4]) of 8.59.

With `Cn1nnc2ccc(Sc3ccc(Cl)cc3Cn3cncn3)cc21` [Example 71, 6-[4-chloro-2-(1H-1,2,4-triazol-1-ylmethyl)phenylthio]-1-methyl-1H-benzotriazole] the pIC50 (aromatase from rat ovary; [4]) was 8.92.

In the case of `Cn1nnc2ccc(Cc3ccc(Cl)cc3Cn3cncn3)cc21` [Example 79, 6-[4-chloro-2-(1H-1,2,4-triazol-1-ylmethyl)benzyl]-1-methyl-1H-benzotriazole], the pIC50 (aromatase from rat ovary; [4]) was 9.15.

Work on `Cn1nnc2ccc(Cc3ccc(C#N)cc3Cn3cncn3)cc21` [Example 80, 4-[(1-methyl-1H-benzotriazole-6-yl)methyl]-3-(1H-1,2,4-triazol-1-ylmethyl)benzonitrile] yielded an inhibition in vivo at 0.1 mg/kg (plasma estradiol) of 49% and a pIC50 (aromatase from rat ovary; [4]) of 8.72.

In the case of `Clc1ccccc1C(c1ccccc1)(c1ccccc1)n1ccnc1` [clotrimazole], the aromatase inhibitory action (aromatase) is listed as “have aromatase inhibitory activities as well”.

In the case of `CC(=O)N1CCN(c2ccc(OCC3COC(Cn4ccnc4)(c4ccc(Cl)cc4Cl)O3)cc2)CC1` (centres unmarked) [ketoconazole], the aromatase inhibitory action (aromatase) is given as “have aromatase inhibitory activities as well”.

For `Clc1ccc(COC(Cn2ccnc2)c2ccc(Cl)cc2Cl)c(Cl)c1` (centres unmarked) [miconazole], the aromatase inhibitory action (aromatase) is listed as “have aromatase inhibitory activities as well”.

In the case of `CC/C(=C(\c1ccccc1)c1ccc(OCCN(C)C)cc1)c1ccccc1` [tamoxifen], the therapeutical efficacy [3] is given as “clinically satisfactory effect cannot be brought about from such administration alone”.

For `C[C@]12C=CC(=O)C=C1CC[C@@H]1[C@@H]2CC[C@]2(C)OC(=O)CC[C@@H]12` [testolactone], the “absorption when administered orally” value [1] is listed as “poorly absorbed when administered orally” and the therapeutical efficacy [3] is listed as “never exerts sufficient therapeutical efficacy”.
